Reference: patent publication US11286228B2, “Stilbene derivative and method for preparing same” (Ozchela Inc., priority 2016, dated 2022)
Like-named read-outs stand apart in the source and are kept apart here.

Legend:
cyclophilin = assay: Cis-trans isomerase inhibitory activity (chymotrypsin-coupled Suc-AAPF-pNA cleavage, absorbance 390 nm); assay type: biochemical
From the text: Chymotrypsin cleaves a trans-type alanine-proline peptide bond. When Suc-AAPF-pNA (a peptide substrate) and chymotrypsin are mixed, the trans-type peptide substrate is cleaved and the cis-type peptide substrate remains. The remaining cis-type peptide substrate is converted into a trans form by a cis-trans isomerase and is then cleaved again by chymotrypsin. When the cis-trans isomerase is present, chymotrypsin is able to cleave a larger amount of trans-type peptide substrate within a predetermined period of time, from which the activity of the cis-trans isomerase may be determined. The amount of the cleaved trans-type peptide substrate is measured using absorbance at 390 nm. Cyclophilin has cis-trans isomerase activity, and accelerates the cleavage of trans-type peptide substrate by chymotrypsin. When the stilbene derivatives of the present invention were treated together with cyclophilin, the cleavage of the peptide substrate by chymotrypsin was not observed to accelerate. Thereby, the stilbene derivatives of the invention can be concluded to inhibit the activity of cyclophilin.

hepatitis C virus = assay: Antiviral activity in HCV replicon cells (Renilla luciferase); assay type: cell-based
Protocol: The antiviral activity of the stilbene derivatives on hepatitis C virus was measured. The replicon cells that stably replicate the hepatitis C virus genome were attached to a culture plate and cultured in a CO2 incubator at 37° C. for 24 hr. The replicon cells cultured for one day were washed with a PBS solution, treated with the compounds of the present invention, and then cultured for 72 hr. The stilbene derivative-treated replicon cells were washed with a cold PBS solution and added with 20 μL of a cell lysis solution so that the cells were lysed in ice for 20 min. 100 μL of a Renilla luciferase substrate was added thereto, after which the luminescence thereof was measured and thus the amount of the hepatitis C virus genome was estimated. The amount of the hepatitis C virus genome in the stilbene derivative-treated replicon cells according to the present invention relative to the amount of the hepatitis C virus genome in dimethylsulfoxide (DMSO)-treated replicon cells is shown.
Compounds 1 to 155 of Tables 1 to 10 may be grouped as follows based on the antiviral activity (EC50) values: […]

[1] = test system: mitochondria obtained from hepatocytes; assay: Inhibitory activity on calcium-induced mitochondrial swelling (absorbance 520 nm)
From the text: Cyclophilin is a key protein for forming permeability transition pores (PTP) in mitochondria. When permeability transition pores are formed, mitochondria swell, whereby the outer membrane thereof ruptures and thus cell death progresses. Such mitochondrial dysfunction causes many diseases including neurodegenerative diseases, cancer, and the like. Cyclosporine, a known cyclophilin inhibitor, is capable of preventing the formation of permeability transition pores to thus suppress mitochondrial swelling.
The mitochondrial swelling test was performed as follows. Specifically, the hepatocytes were disrupted using a Dounce tissue grinder. The disrupted cells were centrifuged at 700×g for 10 min and the supernatant was transferred into a new tube. The supernatant was centrifuged at 12,000×g for 15 min, thereby obtaining mitochondria.
When the extracted mitochondria were added with calcium, they swelled, which may be observed by measuring the absorbance at 520 nm. The stilbene derivatives are effective at inhibiting mitochondrial swelling due to calcium.
The activity of Compounds 1 to 155 of Tables 1 to 10 on inhibiting mitochondrial swelling may be determined based on IC50 values, and may be grouped as follows: […]

[2] = cyclophilin, chymotrypsin, Suc-AAPF-pNA, read-out: Test Example 1: cis-trans isomerase inhibitory activity (IC50)
[3] = Hepatitis C virus, HCV replicon cells, 72 hr, Renilla luciferase, relative to DMSO, read-out: Test Example 3: antiviral activity (EC50)
[4] = Hepatocyte, calcium-induced swelling of extracted mitochondria, read-out: Test Example 4: inhibiting mitochondrial swelling (IC50)
[5] = Hepatitis C virus, 72 h, read-out: Test Example 3: antiviral activity (EC50)
[6] = HCV replicon cells, 72 hr, Renilla luciferase, relative to DMSO, read-out: Test Example 3: antiviral activity (EC50)
[7] = calcium-induced swelling of extracted mitochondria, read-out: Test Example 4: inhibiting mitochondrial swelling (IC50)
[8] = read-out: Test Example 1: cis-trans isomerase inhibitory activity (IC50) group
[9] = Hepatitis C virus, HCV replicon cells, read-out: Test Example 3: antiviral activity (EC50) group
[10] = Hepatocyte, read-out: Test Example 4: activity on inhibiting mitochondrial swelling (IC50) group

Row | Structure (SMILES) | IC50 (cyclophilin; [2]) | EC50 (hepatitis C virus; [3]) | IC50 [1, 4] | other results
1 | COc1ccccc1CCc1ccccc1C=C(C#N)c1ccc([N+](=O)[O-])cc1 [Compound 49] | 200 to 2000 nM | 5 to 50 µM | 50 to 500 µM | 
2 | CN(C)CCOc1ccccc1C=C(C#N)c1ccc([N+](=O)[O-])cc1 [Compound 28] | 200 to 2000 nM | 5 to 50 µM | 50 to 500 µM | 
3 | COC(=O)c1ccccc1C=Cc1ccc(CC(C)(C)C)cc1 [Compound 124] | ≤ 20 nM | < 0.5 µM | < 5 µM | 
4 | CCCCOC(=O)c1ccccc1C=C(N)c1ccc(CC2CCCCC2)cc1 [Compound 110] | 20 to 200 nM | 0.5 to 5 µM | 5 to 50 µM | 
5 | CCCCCOC(=O)c1ccccc1C=C(N)c1ccc(CC(C)(C)C)cc1 [Compound 103] | 20 to 200 nM | 0.5 to 5 µM | 5 to 50 µM | 
6 | COc1ccccc1C=C(C#N)c1ccc(C(=O)C(C)(C)C)cc1 [Compound 14] | 20 to 200 nM | 0.5 to 5 µM | 5 to 50 µM | 
7 | CCCCOC(=O)c1ccccc1C=C(N)c1ccc(Cc2ccccc2)cc1 [Compound 111] | 20 to 200 nM |  | 5 to 50 µM | EC50 (hepatitis C virus; [5]): 0.5 to 5 µM
8 | N#CC(=Cc1ccccc1CCc1ccc(N)cc1)c1ccc([N+](=O)[O-])cc1 [Compound 53] | 20 to 200 nM | 0.5 to 5 µM | 5 to 50 µM | 
9 | N#CC(=Cc1ccccc1N1CCCCC1)c1ccc([N+](=O)[O-])cc1 [Compound 29] | 200 to 2000 nM | 5 to 50 µM | 50 to 500 µM | 
10 | N#CC(=Cc1ccccc1CCCc1ccccc1)c1ccc([N+](=O)[O-])cc1 [Compound 42] | 200 to 2000 nM | 5 to 50 µM | 50 to 500 µM | 
11 | COc1ccccc1C=C(C#N)c1ccc(C)c(C)c1 [Compound 12] | 200 to 2000 nM | 5 to 50 µM | 50 to 500 µM | 
12 | CCCCOC(=O)c1cc(C)ccc1C=C(N)c1ccc(CC(C)(C)C)cc1 [Compound 101] | 20 to 200 nM | 0.5 to 5 µM | 5 to 50 µM | 
13 | CCc1ccc(C(C#N)=Cc2ccccc2C(=O)O)cc1 [Compound 2] | 200 to 2000 nM |  |  | EC50 (hepatitis C virus; [6]): 5 to 50 µM; IC50 [1, 7]: 50 to 500 µM
14 | N#CC(=Cc1ccccc1C(=O)O)c1ccc(CC2CCCCC2)cc1 [Compound 59] | ≤ 20 nM | < 0.5 µM | < 5 µM | 
15 | CC(C)c1ccccc1C=C(C#N)c1ccc([N+](=O)[O-])cc1 [Compound 23] | 200 to 2000 nM | 5 to 50 µM | 50 to 500 µM | 
16 | CC(C)OC(=O)c1ccccc1C=C(N)c1ccc(CC(C)(C)C)cc1 [Compound 104] | 20 to 200 nM | 0.5 to 5 µM | 5 to 50 µM | 
17 | CC(C)(C)Cc1ccc(C=Cc2ccccc2C(=O)OCC2CCCCC2)cc1 [Compound 74] | ≤ 20 nM | < 0.5 µM | < 5 µM | 
18 | CCCCOC(=O)c1c(C=C(C)c2ccc(CC(C)(C)C)cc2)ccc(C)c1C [Compound 86] | 20 to 200 nM | 0.5 to 5 µM | 5 to 50 µM | 
19 | CCCCOC(=O)c1ccccc1C=Cc1ccc(CC(C)CC)cc1 (stereo not drawn) [Compound 78] | 20 to 200 nM | 0.5 to 5 µM | 5 to 50 µM | 
20 | CCCCOC(=O)c1ccccc1C=C(C)c1ccc(CC(C)(C)C)cc1 [Compound 82] | 20 to 200 nM | 0.5 to 5 µM | 5 to 50 µM | 
21 | CCCCOC(=O)c1c(C=C(F)c2ccc(CC(C)(C)C)cc2)ccc(C)c1C [Compound 116] | ≤ 20 nM | < 0.5 µM | < 5 µM | 
22 | N#CC(=Cc1ccccc1CCc1ccccc1Cl)c1ccc([N+](=O)[O-])cc1 [Compound 46] | 20 to 200 nM | 0.5 to 5 µM | 5 to 50 µM | 
23 | CCCCOC(=O)c1ccccc1C=C(Br)c1ccc(CC(C)CC)cc1 (stereo not drawn) [Compound 122] | 20 to 200 nM | 0.5 to 5 µM | 5 to 50 µM | 

Row | Structure (SMILES) | IC50 (cyclophilin; [2]) | EC50 (hepatitis C virus; [3]) | IC50 [1, 4] | other results
24 | CCCCOC(=O)c1ccccc1C=C(Br)c1ccc(CC(C)(C)C)cc1C [Compound 114] | ≤ 20 nM | < 0.5 µM | < 5 µM | 
25 | CCCCOC(=O)c1c(C)cccc1C=C(C)c1ccc(CC(C)(C)C)cc1 [Compound 83] | 20 to 200 nM | 0.5 to 5 µM | 5 to 50 µM | 
26 | COC(=O)c1ccccc1C=Cc1ccc(CC2CCCCC2)cc1 [Compound 127] | 20 to 200 nM | 0.5 to 5 µM | 5 to 50 µM | 
27 | CC(C)(C)Cc1ccc(C=Cc2ccc(N)cc2C(=O)O)cc1 [Compound 138] | ≤ 20 nM | < 0.5 µM | < 5 µM | 
28 | CCCOC(=O)c1ccccc1C=C(C)c1ccc(CC(C)(C)C)cc1 [Compound 87] | 20 to 200 nM | 0.5 to 5 µM | 5 to 50 µM | 
29 | CC(C)(C)c1ccc(C(C#N)=Cc2ccccc2C(=O)O)cc1 [Compound 10] | 20 to 200 nM | 0.5 to 5 µM | 5 to 50 µM | 
30 | CCCCOC(=O)c1ccccc1C=C(C)c1ccc(Cc2ccccc2)cc1 [Compound 97] | 20 to 200 nM |  | 5 to 50 µM | EC50 (hepatitis C virus; [5]): 0.5 to 5 µM
31 | Cc1ccc(C=Cc2ccc(CC(C)(C)C)cc2)c(C(=O)O)c1 [Compound 140] | ≤ 20 nM | < 0.5 µM | < 5 µM | 
32 | N#CC(=Cc1ccccc1N)c1ccc([N+](=O)[O-])cc1 [Compound 24] | 200 to 2000 nM | 5 to 50 µM | 50 to 500 µM | 
33 | Cc1cccc(C(=O)O)c1C=Cc1ccc(CC(C)(C)C)cc1 [Compound 152] |  |  |  | IC50 (cyclophilin; [8]): ≤ 20 nM; EC50 (hepatitis C virus; [9]): < 0.5 µM; IC50 [1, 10]: < 5 µM
34 | CC(C)(C)Cc1ccc(C=Cc2cc(N)ccc2C(=O)O)cc1 [Compound 154] |  |  |  | IC50 (cyclophilin; [8]): 20 to 200 nM; EC50 (hepatitis C virus; [9]): 0.5 to 5 µM; IC50 [1, 10]: 5 to 50 µM
35 | CCCCOC(=O)c1c(C=C(N)c2ccc(CC(C)(C)C)cc2)ccc(C)c1C [Compound 102] | 20 to 200 nM | 0.5 to 5 µM | 5 to 50 µM | 
36 | CCCCOC(=O)c1ccccc1C=C(C)c1ccc(CC2CCCCC2)cc1 [Compound 96] | 20 to 200 nM | 0.5 to 5 µM | 5 to 50 µM | 
37 | CCC(C)Oc1ccccc1C=C(C#N)c1ccc([N+](=O)[O-])cc1 (stereo not drawn) [Compound 26] | 200 to 2000 nM | 5 to 50 µM | 50 to 500 µM | 
38 | N#CC(=Cc1ccccc1CC1CCCCC1)c1ccc([N+](=O)[O-])cc1 [Compound 41] | ≤ 20 nM | < 0.5 µM | < 5 µM | 
39 | CC(C)(C)c1ccc(CCc2ccccc2C=C(C#N)c2ccc([N+](=O)[O-])cc2)cc1 [Compound 45] | 20 to 200 nM | 0.5 to 5 µM | 5 to 50 µM | 
40 | CCCCOC(=O)c1ccccc1C=C(C)c1ccc(CC(C)CC)cc1 (stereo not drawn) [Compound 94] | 20 to 200 nM | 0.5 to 5 µM | 5 to 50 µM | 
41 | COC(=O)c1ccccc1C=Cc1ccc(CC2CCCC2)cc1 [Compound 126] | 20 to 200 nM | 0.5 to 5 µM | 5 to 50 µM | 
42 | CC(C)(C)Cc1ccc(C(C#N)=Cc2ccccc2C(=O)O)cc1 [Compound 54] | ≤ 20 nM | < 0.5 µM | < 5 µM | 
43 | CC(C)(C)C(=O)c1ccc(C(C#N)=Cc2ccccc2C(=O)O)cc1 [Compound 15] | 200 to 2000 nM |  |  | EC50 (hepatitis C virus; [6]): 5 to 50 µM; IC50 [1, 7]: 50 to 500 µM
44 | CCCCOC(=O)c1ccccc1C=C(C)c1ccc(CC2CCCC2)cc1 [Compound 95] | 20 to 200 nM | 0.5 to 5 µM | 5 to 50 µM | 
45 | CC(C)c1ccc(C(C#N)=Cc2ccccc2C(=O)O)cc1 [Compound 5] | 200 to 2000 nM | 5 to 50 µM | 50 to 500 µM | 
46 | CCc1ccc(C(C#N)=Cc2ccccc2N(C)C)cc1 [Compound 3] | 200 to 2000 nM |  |  | EC50 (hepatitis C virus; [6]): 5 to 50 µM; IC50 [1, 7]: 50 to 500 µM
